Legend:
[1] = biological target: T1, Cholecystokinin receptor type A (Rattus norvegicus, UniProt P30551); assay: Binding affinity towards CCK-A receptor in rat pancreas membrane using Hunter labelled CCK-8S assay; type: cell membranes
T1 sequence (P30551 whole entry): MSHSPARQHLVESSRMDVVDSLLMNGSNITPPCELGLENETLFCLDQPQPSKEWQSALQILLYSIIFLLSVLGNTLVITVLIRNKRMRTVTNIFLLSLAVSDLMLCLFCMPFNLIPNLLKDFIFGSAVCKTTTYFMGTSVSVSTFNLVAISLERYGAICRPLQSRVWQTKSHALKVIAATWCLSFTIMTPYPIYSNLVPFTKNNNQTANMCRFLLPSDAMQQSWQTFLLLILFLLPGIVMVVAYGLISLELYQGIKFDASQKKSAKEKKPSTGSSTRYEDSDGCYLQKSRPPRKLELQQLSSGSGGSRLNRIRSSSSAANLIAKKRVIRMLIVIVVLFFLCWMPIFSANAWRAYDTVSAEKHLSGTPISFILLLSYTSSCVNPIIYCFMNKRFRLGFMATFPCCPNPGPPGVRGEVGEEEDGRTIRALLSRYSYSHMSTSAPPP

[2] = biological target: T2, Gastrin/cholecystokinin type B receptor (Mus musculus, UniProt P56481); assay: Binding affinity towards CCK-B receptor in mouse cerebral cortex membrane using [125I]bolton assay; type: cell membranes
T2 sequence (P56481 whole entry): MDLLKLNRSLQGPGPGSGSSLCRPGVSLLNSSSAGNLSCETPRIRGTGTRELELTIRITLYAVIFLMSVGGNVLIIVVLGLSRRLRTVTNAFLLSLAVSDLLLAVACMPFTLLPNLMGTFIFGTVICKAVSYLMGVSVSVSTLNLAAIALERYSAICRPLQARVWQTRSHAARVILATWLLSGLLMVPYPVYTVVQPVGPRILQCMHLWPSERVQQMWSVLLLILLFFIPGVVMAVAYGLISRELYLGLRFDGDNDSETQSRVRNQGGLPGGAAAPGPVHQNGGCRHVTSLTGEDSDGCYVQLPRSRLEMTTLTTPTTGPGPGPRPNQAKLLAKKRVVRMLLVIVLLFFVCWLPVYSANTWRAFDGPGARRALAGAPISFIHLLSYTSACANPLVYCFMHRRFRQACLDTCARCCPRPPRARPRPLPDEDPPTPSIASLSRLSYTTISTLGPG

| Ki [1] | Ki [2] | SMILES |
| --- | --- | --- |
| 158 nM | 0.52 nM | C[C@](Cc1c[nH]c2ccccc12)(NC(=O)OC1C2CC3CC(C2)CC1C3)C(=O)N[C@@H](CC(=O)O)Cc1ccc(N)c(I)c1 (some centres undefined) |
| 392 nM | 0.88 nM | C[C@](Cc1c[nH]c2ccccc12)(NC(=O)OC1C2CC3CC(C2)CC1C3)C(=O)N[C@@H](CC(=O)O)Cc1ccc(N=[N+]=[N-])c(I)c1 (some centres undefined) |

Source: ChEMBL document CHEMBL1128058, “Synthesis of novel iodinated radioligands with high affinity and selectivity for CCK-B/gastrin receptors” (Bioorg Med Chem Lett, 1995)
